In PubChem BioAssay (NCI):
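How tested: cells in 96-well plates exposed to compound for 48 hours at five concentrations. Definition used: TGI = concentration required for complete inhibition of growth.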

Columns and labels:
Assay in all cases: inhibition of tumour cell growth, NCI panel, 48 h
CCRF-CEM leukemia = system: CCRF-CEM leukemia
COLO 205 colon = system: COLO 205 colon
DU-145 prostate = system: DU-145 prostate
HCT-15 colon = system: HCT-15 colon
IGROV1 ovarian = system: IGROV1 ovarian
MDA-N = system: MDA-N
SF-539 CNS = system: SF-539 CNS
SK-MEL-5 melanoma = system: SK-MEL-5 melanoma
SK-OV-3 ovarian = system: SK-OV-3 ovarian
UACC-62 melanoma = system: UACC-62 melanoma

Row | Structure (SMILES) | TGI (CCRF-CEM leukemia) | TGI (COLO 205 colon) | TGI (DU-145 prostate) | TGI (HCT-15 colon) | TGI (IGROV1 ovarian) | TGI (MDA-N) | TGI (SF-539 CNS) | TGI (SK-MEL-5 melanoma) | TGI (SK-OV-3 ovarian) | TGI (UACC-62 melanoma)
1 | CC(C)Nc1[nH]c(C(=O)c2ccccc2)c(N)c1C(=S)Nc1ccccc1 | > 100 µM | 97.5 µM | > 100 µM | > 100 µM | > 100 µM | > 100 µM | > 100 µM | 74.1 µM | > 100 µM | 35.2 µM
2 | ClC(Cl)(Cl)C1CCOC1n1nc2ccccc2n1 (configuration not stated) | > 100 µM | > 100 µM | > 100 µM | > 100 µM | > 100 µM | > 100 µM | > 100 µM | > 100 µM | > 100 µM | > 100 µM
3 | N#Cc1ncn(-c2ccccc2)c1N | > 100 µM | > 100 µM | > 100 µM | > 100 µM | > 100 µM | > 100 µM | > 100 µM | > 100 µM | > 100 µM | > 100 µM
4 | COc1cc2c(cc1OC)C1Cc3ccccc3CCN1CC2 (configuration not stated) | > 100 µM | > 100 µM | > 100 µM | > 100 µM | > 100 µM | > 100 µM | > 100 µM | > 100 µM | > 100 µM | > 100 µM
5 | CSc1c(C(=O)Nc2ccc(C)cc2)c(N)nn1-c1ccccc1 | > 100 µM | > 100 µM | > 100 µM | > 100 µM | > 100 µM | > 100 µM | 92.1 µM | > 100 µM | > 100 µM | > 100 µM
6 | Nc1nc(Cl)c(C=O)c(NCC2(CO)CC(CCc3ccccc3)C2)n1 (configuration not stated) | 31.8 µM | 24.2 µM | 30.8 µM | 13.8 µM | 3.48 µM | 18.1 µM | 17.8 µM | 20.3 µM | 24.4 µM | 16.2 µM
7 | N#C/C(=C1\N=C(c2ccccc2O)Oc2ccccc21)c1ccc([N+](=O)[O-])cc1 | > 100 µM | > 100 µM | > 100 µM | > 100 µM | > 100 µM | > 100 µM | > 100 µM | > 100 µM | > 100 µM | > 100 µM
8 | Clc1ccccc1/C=C/c1nsc(/C=C/c2ccccc2Cl)n1 | > 100 µM | > 100 µM | > 100 µM | > 100 µM | > 100 µM | > 100 µM | > 100 µM | > 100 µM | > 100 µM | 
9 | COc1ncnc2c1cnn2Cc1cn(COCC(O)CO)nn1 (configuration not stated) | > 100 µM | > 100 µM | > 100 µM | > 100 µM | > 100 µM | > 100 µM | > 100 µM | > 100 µM | > 100 µM | > 100 µM
10 | CC(C)(C)c1cc(C(=O)/C=C/c2ccc(O)c(O)c2O)cc(C(C)(C)C)c1O | 7.84 µM | 26.3 µM | 35.6 µM | 14.8 µM | 43.9 µM | 28.9 µM | 10.2 µM | 19 µM | 53.7 µM | 18.8 µM
11 | Cc1nc2c(o1)C(=O)c1ccccc1C2=NC1CCCCC1N (configuration not stated) | 1.28 µM | 3.08 µM | 2.8 µM | 1.84 µM | 2.89 µM | 0.343 µM | 1.08 µM | 0.252 µM |  | 0.318 µM
12 | O=C(O)C(Cc1ccc2c(c1)CCC2)(Cc1ccc2c(c1)CCC2)C(=O)O | > 100 µM | > 100 µM | > 100 µM | > 100 µM | > 100 µM | > 100 µM | > 100 µM | > 100 µM | > 100 µM | > 100 µM
13 | CC1=C2C(=O)O[C@@H](c3ccoc3)[C@]2(C)CCC1=O | > 100 µM | > 100 µM | > 100 µM | > 100 µM | > 100 µM | > 100 µM | > 100 µM | > 100 µM | > 100 µM | > 100 µM
14 | CNNC1=NS(=O)(=O)c2cc(C)c(Cl)cc2S1 | > 10 µM | > 10 µM | > 10 µM | > 10 µM | > 10 µM | > 10 µM | > 10 µM | > 10 µM | > 10 µM | > 10 µM
15 | Cc1c2c(c(C)n1-c1ccccc1)C(=O)N(CCSC(=N)N)C2=O | > 100 µM | > 100 µM | > 100 µM | > 100 µM | > 100 µM | > 100 µM | > 100 µM | > 100 µM | > 100 µM | > 100 µM
16 | COC(=O)C1Cc2ccc(C)cc2C1=O (configuration not stated) | > 100 µM | > 100 µM | > 100 µM | > 100 µM | > 100 µM | > 100 µM | > 100 µM | > 100 µM | > 100 µM | > 100 µM
17 | CSC(SC)=C1C(=O)NN=C1C | > 100 µM | > 100 µM | > 100 µM | > 100 µM | > 100 µM | > 100 µM | > 100 µM | > 100 µM | > 100 µM | > 100 µM
18 | CC(CC(=O)CO[C@H]1[C@H](O)[C@@H](O)[C@@H](O)[C@@H]2NC(=O)c3c(cc4c(c3O)OCO4)[C@H]21)OC1OC(CO)C(O)C(O)C1O (some centres not stated) | 0.582 µM | 1.16 µM | 0.664 µM | 3.43 µM | 6.82 µM | 3.91 µM | 1.86 µM | 1.48 µM | 3.87 µM | 4.17 µM
19 | CCCCCCCCCCCCCCCC(=O)ON1C(=S)NC(C)(c2ccccc2)C1=S (configuration not stated) | > 100 µM | > 100 µM | > 100 µM | > 100 µM | > 100 µM | > 100 µM | > 100 µM | > 100 µM | > 100 µM | > 100 µM
20 | CC(=O)OC1/C(=C/c2ccc([N+](=O)[O-])cc2)C[C@H]2[C@@H]3CC=C4C[C@@H](OC(C)=O)CC[C@]4(C)[C@H]3CC[C@]12C (some centres not stated) | > 64.8 µM | > 100 µM | > 100 µM | > 100 µM | > 100 µM | > 100 µM | > 100 µM | > 100 µM | > 100 µM | > 100 µM
21 | CCOC(=O)C1(Cc2ccccc2)Cc2cc3c(cc2C1)CCC3 | 36.6 µM | 45.2 µM | > 100 µM | > 100 µM | > 100 µM | > 100 µM | > 100 µM |  | 90.9 µM | > 100 µM
